We go through ten compounds from paper PMC8228600, “Design, Synthesis, In Vitro and In Vivo Evaluation of Heterobivalent SiFAlin-Modified Peptidic Radioligands Targeting Both Integrin αvβ3 and the MC1 Receptor—Suitable for the Specific Visualization of Melanomas?” (Pharmaceuticals, 2021).

For orientation: IC50 means the concentration needed to halve the response being measured.

Read-outs that look alike come from different tables or passages of the source. Where a SMILES comes first, the peptide text is derived from it. [ ]: non-standard residue; d: D form. Bounds are passed on as bounds.

One experiment concerns the target T1, MC1R (Mus musculus, UniProt Q01727).
T1 construct: host or cells: B16F10 murine melanoma cells (whole cells)
The experiment is described as follows: Competitive displacement assay on MC1R-positive B16F10 cells vs [125I]I-NDP. Format: binding, murine. As for the experimental part: (§1) As in vitro receptor affinities represent an important parameter for the in vivo tumor uptake of radiotracers, the binding affinities of 1–6 were determined to both target receptors—integrin αvβ3 and the MC1R—in competitive displacement assays.
(§2) Murine melanoma cells (B16F10) and human glioblastoma cells (U87MG) as well as Dulbecco’s Modified Eagle’s Medium (DMEM) and Eagle’s Minimum Essential Medium (EMEM) were purchased from ATCC (Wesel, Germany). Fetal calf serum (FCS) was obtained from Bio&SELL (Feucht, Germany); phosphate-buffered saline (PBS), 1,10-phenanthroline, tris(hydroxymethyl)aminomethane hydrochloride (Tris·HCl) and manganese chloride (MnCl2) were obtained from Sigma-Aldrich (Taufkirchen, Germany); penicillin/streptomycin (pen/strep) and 0.25% Trypsin with 0.02% EDTA-solution in PBS were obtained from Gibco (Schwerte, Germany); 2-(4-(2-hydroxyethyl)-1-piperazinyl)-ethanesulfonic acid (HEPES) was obtained from Gerbu (Heidelberg, Germany); bovine serum albumin (BSA), sodium chloride (NaCl), calcium chloride (CaCl2) and magnesium chloride (MgCl2) were obtained from Carl Roth (Karlsruhe, Germany). [^125I]I-NDP (NEX352, 81.4 GBq/μmol) and [^125I]I-echistatin (NEX083, 81.4 GBq/μmol) were purchased from PerkinElmer (Rodgau, Germany). γ-counting was performed using a 2480 Wizard^2 gamma counter system from PerkinElmer.
(§3) To determine the binding affinity to the respective receptor, competitive displacement studies were performed on MC1R-expressing B16F10 and on integrin αvβ3-expressing U87MG cells. Each compound was evaluated at least three times, each experiment being performed in triplicate. As radioligands, [^125I]I-NDP (81.4 GBq/μmol) and [^125I]I-echistatin (81.4 GBq/μmol) were used as competitors. First, the Millipore MultiScreen 96-well filter plate was incubated with 200 μL/well of a BSA/PBS (1/99, w/v) solution at 25 °C for 1 h. After preparing the binding buffers (DMEM with 25 mM HEPES, 0.3 mM 1,10-phenanthroline and 0.2% BSA; EMEM with 20 mM Tris·HCl, 150 mM NaCl, 2 mM CaCl2, 1 mM MgCl2, 1 mM MnCl2 and 0.1% BSA), the dilution series of the HBPLs 1–6 (0.04–4 μM and 2–400 μM) and the reference agents 36–39 (0.01–1 μM and 0.04–400 μM) were prepared in the respective binding buffer. The solution of the respective radioligand was prepared by adding 55–75 kBq of the respective ^125I-labeled competitor to 3.5 mL of binding buffer. The respective cells were harvested and re-suspended in the binding buffer to give a cell concentration of 2 × 10^6/mL. After the BSA solution was filtered using the Millipore Multiscreen vacuum manifold, 50 μL of a cell suspension containing 10^5 cells were seeded in each well. Subsequently, 25 μL of the ^125I-labeled competitor solution (0.018 kBq/μL) and 25 μL of the respective compound to be tested were added. The compound to be tested was added in eleven increasing concentrations, whereas the 12th well contained no test compound to ensure the 100% binding of the ^125I-labeled competitor. After incubation of the plate for another hour at 25°C, the solution was filtrated using the Millipore Multiscreen vacuum manifold, and the cells were washed three times with cold PBS (1 × 200 μL, 2 × 100 μL). Using a Millipore MultiScreen disposable punch and a Millipore MultiScreen punch kit, the filters of the well plate were collected in γ-counter tubes separately and measured by γ-counting. The determination of the half-maximal inhibitory concentration (IC50) values was performed by fitting the obtained data via nonlinear regression using GraphPad Prism (v6.05).

The target in another experiment is T2, integrin αvβ3 (Homo sapiens, UniProt P05106+P06756).
T2 construct: host or cells: U87MG human glioblastoma cells (whole cells)
Put plainly: Competitive displacement assay on integrin αvβ3-positive U87MG cells vs [125I]I-echistatin. Format: binding. The method, then: as §1, §2, §3

As to `CCCC[C@H](NC(=O)CNC(=O)CNC(=O)CCOCCOCCC(=O)NCCCN(CCCNC(=O)CCOCCOCCC(=O)NCCCC[C@@H]1NC(=O)[C@@H](Cc2ccccc2)NC(=O)[C@H](CC(=O)O)NC(=O)CNC(=O)[C@H](CCCNC(=N)N)NC1=O)CC(=O)N[C@@H](CCCCNC(=O)CCC[N+](C)(C)Cc1ccc([Si](F)(C(C)(C)C)C(C)(C)C)cc1)C(N)=O)C(=O)N[C@H]1CC(=O)NCCCC[C@@H](C(N)=O)NC(=O)[C@H](Cc2c[nH]c3ccccc23)NC(=O)[C@H](CCCNC(=N)N)NC(=O)[C@@H](Cc2ccccc2)NC(=O)[C@H](Cc2c[nH]cn2)NC1=O` [HBPL 1, SiFAlin-APG-PEG1-c(RGDfK)/GG-Nle-c(DHfRWK)], the IC50 came to 1.74 ± 0.25 nM at MC1R and 2880 ± 757 nM at integrin αvβ3.

Take `CCCC[C@H](NC(=O)CNC(=O)CNC(=O)CCOCCOCCOCCOCCC(=O)NCCCN(CCCNC(=O)CCOCCOCCOCCOCCC(=O)NCCCC[C@@H]1NC(=O)[C@@H](Cc2ccccc2)NC(=O)[C@H](CC(=O)O)NC(=O)CNC(=O)[C@H](CCCNC(=N)N)NC1=O)CC(=O)N[C@@H](CCCCNC(=O)CCC[N+](C)(C)Cc1ccc([Si](F)(C(C)(C)C)C(C)(C)C)cc1)C(N)=O)C(=O)N[C@H]1CC(=O)NCCCC[C@@H](C(N)=O)NC(=O)[C@H](Cc2c[nH]c3ccccc23)NC(=O)[C@H](CCCNC(=N)N)NC(=O)[C@@H](Cc2ccccc2)NC(=O)[C@H](Cc2c[nH]cn2)NC1=O` [HBPL 2, SiFAlin-APG-PEG3-c(RGDfK)/GG-Nle-c(DHfRWK)]: the results for the half-maximal inhibitory concentration (IC50) at MC1R and at integrin αvβ3 were 0.99 ± 0.11 nM and 1300 ± 288 nM, respectively.

On to `CCCC[C@H](NC(=O)CNC(=O)CNC(=O)CCOCCOCCOCCOCCOCCOCCC(=O)NCCCN(CCCNC(=O)CCOCCOCCOCCOCCOCCOCCC(=O)NCCCC[C@@H]1NC(=O)[C@@H](Cc2ccccc2)NC(=O)[C@H](CC(=O)O)NC(=O)CNC(=O)[C@H](CCCNC(=N)N)NC1=O)CC(=O)N[C@@H](CCCCNC(=O)CCC[N+](C)(C)Cc1ccc([Si](F)(C(C)(C)C)C(C)(C)C)cc1)C(N)=O)C(=O)N[C@H]1CC(=O)NCCCC[C@@H](C(N)=O)NC(=O)[C@H](Cc2c[nH]c3ccccc23)NC(=O)[C@H](CCCNC(=N)N)NC(=O)[C@@H](Cc2ccccc2)NC(=O)[C@H](Cc2c[nH]cn2)NC1=O` [HBPL 3, SiFAlin-APG-PEG5-c(RGDfK)/GG-Nle-c(DHfRWK)], for which the half-maximal inhibitory concentration (IC50) on MC1R turned out to be 3.44 ± 0.09 nM; on integrin αvβ3, 1910 ± 70 nM.

As for `CCCC[C@H](NC(=O)CNC(=O)CNC(=O)CCOCCOCCOCCOCCOCCOCCOCCOCCOCCC(=O)NCCCN(CCCNC(=O)CCOCCOCCOCCOCCOCCOCCOCCOCCOCCC(=O)NCCCC[C@@H]1NC(=O)[C@@H](Cc2ccccc2)NC(=O)[C@H](CC(=O)O)NC(=O)CNC(=O)[C@H](CCCNC(=N)N)NC1=O)CC(=O)N[C@@H](CCCCNC(=O)CCC[N+](C)(C)Cc1ccc([Si](F)(C(C)(C)C)C(C)(C)C)cc1)C(N)=O)C(=O)N[C@H]1CC(=O)NCCCC[C@@H](C(N)=O)NC(=O)[C@H](Cc2c[nH]c3ccccc23)NC(=O)[C@H](CCCNC(=N)N)NC(=O)[C@@H](Cc2ccccc2)NC(=O)[C@H](Cc2c[nH]cn2)NC1=O` [HBPL 4, SiFAlin-APG-PEG8-c(RGDfK)/GG-Nle-c(DHfRWK)], the IC50 at MC1R came to 6 ± 0.47 nM; on integrin αvβ3 it was 2030 ± 323 nM.

Take `CCCC[C@H](NC(=O)CNC(=O)CNC(=O)COCC(=O)NCCCN(CCCNC(=O)COCC(=O)NCCCC[C@@H]1NC(=O)[C@@H](Cc2ccccc2)NC(=O)[C@H](CC(=O)O)NC(=O)CNC(=O)[C@H](CCCNC(=N)N)NC1=O)CC(=O)N[C@@H](CCCCNC(=O)CCC[N+](C)(C)Cc1ccc([Si](F)(C(C)(C)C)C(C)(C)C)cc1)C(N)=O)C(=O)N[C@H]1CC(=O)NCCCC[C@@H](C(N)=O)NC(=O)[C@H](Cc2c[nH]c3ccccc23)NC(=O)[C@H](CCCNC(=N)N)NC(=O)[C@@H](Cc2ccccc2)NC(=O)[C@H](Cc2c[nH]cn2)NC1=O` [HBPL 5, SiFAlin-APG-DIG-c(RGDfK)/GG-Nle-c(DHfRWK)]: the IC50 on MC1R is 2.05 ± 0.35 nM; on integrin αvβ3, 5900 ± 722 nM.

`CCCC[C@H](NC(=O)CNC(=O)CNC(=O)[C@H](CCC(=O)O)NC(=O)CNC(=O)[C@H](CCC(=O)O)NC(=O)CNC(=O)[C@H](CCC(=O)O)NC(=O)C(=O)NCCCN(CCCNC(=O)C(=O)N[C@@H](CCC(=O)O)C(=O)NCC(=O)N[C@@H](CCC(=O)O)C(=O)NCC(=O)N[C@@H](CCC(=O)O)C(=O)NCCCC[C@@H]1NC(=O)[C@@H](Cc2ccccc2)NC(=O)[C@H](CC(=O)O)NC(=O)CNC(=O)[C@H](CCCNC(=N)N)NC1=O)CC(=O)N[C@@H](CCCCNC(=O)CCC[N+](C)(C)Cc1ccc([Si](F)(C(C)(C)C)C(C)(C)C)cc1)C(N)=O)C(=O)N[C@H]1CC(=O)NCCCC[C@@H](C(N)=O)NC(=O)[C@H](Cc2c[nH]c3ccccc23)NC(=O)[C@H](CCCNC(=N)N)NC(=O)[C@@H](Cc2ccccc2)NC(=O)[C@H](Cc2c[nH]cn2)NC1=O` [HBPL 6, SiFAlin-APG-Ox-EGEGE-c(RGDfK)/GG-Nle-c(DHfRWK)]: the IC50 at MC1R is 4.18 ± 0.32 nM; on integrin αvβ3, greater than 100000 nM. Moreover, the “IC50 (U87MG)” value on integrin αvβ3 (integrin αvβ3-positive U87MG cells, competitor [125I]I-echistatin, mean ± SD) is given as “could not be determined”.

In the case of `N=C(N)NCCC[C@@H]1NC(=O)[C@H](CS)NC(=O)[C@@H](Cc2ccccc2)NC(=O)[C@H](CC(=O)O)NC(=O)CNC1=O` [c(RGDfC), reference compound] (cyclo(RGD[dF]C)), at integrin αvβ3 (integrin αvβ3-positive U87MG cells, competitor [125I]I-echistatin, mean ± SD, read-out: IC50 (U87MG)), the half-maximal inhibitory concentration (IC50) worked out at 1490 ± 210 nM.

`N=C(N)NCCC[C@@H]1NC(=O)[C@H](CCCCN)NC(=O)[C@@H](Cc2ccccc2)NC(=O)[C@H](CC(=O)O)NC(=O)CNC1=O` [c(RGDfK), cyclic Arg-Gly-Asp-DPhe-Lys, reference compound]: at MC1R (B16F10 cells, same conditions as IC50 assay (Figure S92)), the “receptor-specific binding to MC1R” value is on record as “no receptor-specific binding”.

“Gly-Gly-Nle-cyclic Asp-His-DPhe-Arg-Trp-Lys [GG-Nle-c(DHfRWK), reference compound]”: at integrin αvβ3 (U87MG cells, same conditions as IC50 assay (Figure S92)), the “receptor-specific binding to integrin αvβ3” value is “no receptor-specific binding”.

Consider “NDP: superpotent synthetic analog of the endogenous ligand α-MSH; reference and blocking substance [reference compound]”, for which the 50% inhibitory concentration (IC50) with MC1R (MC1R-positive B16F10 cells, competitor [125I]I-NDP, mean ± SD, read-out: IC50 (B16F10)) came to 0.17 ± 0.04 nM.
